The subject of series [1] is RAW264.7. Briefly: Antiinflammatory activity in IFN-gamma/LPS-stimulated mouse RAW264.7 cells assessed as inhibition of NO production at 50 uM treated after 2 hrs of LPS addition measured after 19 hrs relative to control; values are per cent of control.
The test system of series [2] is RAW264.7. Briefly: Antiinflammatory activity in IFN-gamma/LPS-stimulated mouse RAW264.7 cells assessed as inhibition of NO production at 50 uM treated after 18.5 hrs of LPS addition measured after 19 hrs relative to control. The series is classed as functional, cell-based.
Series [3] deals with RAW264.7. Briefly: Antiinflammatory activity in IFN-gamma/LPS-stimulated mouse RAW264.7 cells assessed as inhibition of NO production at 10 uM treated after 2 hrs of LPS addition measured after 19 hrs relative to control; values are per cent of control.
Series [4] concerns RAW264.7. The experiment in a line: Antiinflammatory activity in IFN-gamma/LPS-stimulated mouse RAW264.7 cells assessed as inhibition of NO production at 10 uM treated before 30 mins of IFN-gamma stimulation in presence of LPS measured after 19 hrs relative to control. The series is classed as functional. The note with it: values are per cent of control.
Series [5] has as its system RAW264.7. Briefly: Cytotoxicity against IFN-gamma/LPS-stimulated mouse RAW264.7 cells at 10 to 100 uM treated after 2 hrs of LPS addition measured after 19 hrs by MTT assay. The series is classed as cell-based. The note with it: raw264.7, 19 h. A general note: Tetrazolium dyes change colour on reduction, which living cells bring about.
Series [6] deals with RAW264.7. Briefly: Antiinflammatory activity in IFN-gamma/LPS-stimulated mouse RAW264.7 cells assessed as inhibition of NO production at 100 uM treated before 30 mins of IFN-gamma stimulation in presence of LPS measured after 19 hrs relative to control. The series is classed as functional. The note with it: values are per cent of control.
The test system of series [7] is RAW264.7. Briefly: Antiinflammatory activity in IFN-gamma/LPS-stimulated mouse RAW264.7 cells assessed as NO production at 100 uM treated after 3 hrs of IFN-gamma stimulation and before 30 mins of LPS addition measured after 19 hrs relative to control.
In series [8] the test system is RAW264.7. The experiment in a line: Antiinflammatory activity in IFN-gamma/LPS-stimulated mouse RAW264.7 cells assessed as inhibition of NO production at 50 uM treated before 30 mins of IFN-gamma stimulation in presence of LPS measured after 19 hrs relative to control. It is filed as functional. The note with it: values are per cent of control.
The test system of series [9] is RAW264.7. Briefly: Antiinflammatory activity in IFN-gamma/LPS-stimulated mouse RAW264.7 cells assessed as inhibition of NO production at 10 uM treated after 18.5 hrs of LPS addition measured after 19 hrs relative to control. The series is classed as functional, cell-based.
Series [10] relates to RAW264.7. The experiment in a line: Antiinflammatory activity in IFN-gamma/LPS-stimulated mouse RAW264.7 cells assessed as inhibition of NO production at 30 uM treated after 18.5 hrs of LPS addition measured after 19 hrs relative to control. It is filed as functional, cell-based.
Series [11] has as its system RAW264.7. The experiment in a line: Antiinflammatory activity in IFN-gamma/LPS-stimulated mouse RAW264.7 cells assessed as NO production at 50 uM treated after 3 hrs of IFN-gamma stimulation and before 30 mins of LPS addition measured after 19 hrs relative to control.
Series [12] concerns RAW264.7. The experiment in a line: Cytotoxicity against IFN-gamma/LPS-stimulated mouse RAW264.7 cells at 10 to 100 uM treated after 3 hrs of IFN-gamma stimulation and before 30 mins of LPS addition measured after 19 hrs by MTT assay. The note with it: raw264.7, 19 h. The series is classed as cell-based.
Series [13] has as its system RAW264.7. The experiment in a line: Antiinflammatory activity in IFN-gamma/LPS-stimulated mouse RAW264.7 cells assessed as inhibition of NO production at 100 uM treated after 2 hrs of LPS addition measured after 19 hrs relative to control; values are per cent of control.
The subject of series [14] is RAW264.7. The experiment in a line: Antiinflammatory activity in IFN-gamma/LPS-stimulated mouse RAW264.7 cells assessed as NO production at 10 uM treated after 3 hrs of IFN-gamma stimulation and before 30 mins of LPS addition measured after 19 hrs relative to control.
Series [15] concerns RAW264.7. Briefly: Cytotoxicity against IFN-gamma/LPS-stimulated mouse RAW264.7 cells at 10 to 100 uM treated after 18.5 hrs of LPS addition measured after 19 hrs by MTT assay. It is filed as cell-based. The note with it: raw264.7, 19 h.
For series [16], the system named is RAW264.7. Briefly: Antiinflammatory activity in IFN-gamma/LPS-stimulated mouse RAW264.7 cells assessed as inhibition of NO production at 30 uM treated before 30 mins of IFN-gamma stimulation in presence of LPS measured after 19 hrs relative to control. It is filed as functional.
Series [17] relates to RAW264.7. Briefly: Antiinflammatory activity in IFN-gamma/LPS-stimulated mouse RAW264.7 cells assessed as inhibition of NO production at 30 uM treated after 3 hrs of IFN-gamma stimulation and before 30 mins of LPS addition measured after 19 hrs relative to control. It is filed as functional, cell-based.
Series [18] deals with RAW264.7. Briefly: Antiinflammatory activity in IFN-gamma/LPS-stimulated mouse RAW264.7 cells assessed as inhibition of NO production at 50 uM treated after 3 hrs of IFN-gamma stimulation and before 30 mins of LPS addition measured after 19 hrs relative to control. The series is classed as functional.
The subject of series [19] is RAW264.7. The experiment in a line: Antiinflammatory activity in IFN-gamma/LPS-stimulated mouse RAW264.7 cells assessed as inhibition of NO production at 100 uM treated after 3 hrs of IFN-gamma stimulation and before 30 mins of LPS addition measured after 19 hrs relative to control. The series is classed as functional.

By inhibition is commonly meant how much of the control response was suppressed.

Each structure is given as a SMILES string. Active and inactive are the calls of the source. No cut-off for these calls is given here.

As for `C[n+]1c2n(c(=O)c3ccccc31)CCc1c-2[nH]c2ccccc12` [DEHYDROEVODIAMINE], the results for the “NO level, % of control” value in the series on RAW264.7 [1], with RAW264.7 [3] and in the series on RAW264.7 [13] were 77%, 84.3% and 24.2%, respectively. In addition, the result with RAW264.7 [2], with RAW264.7 [9] and with RAW264.7 [10] was inactive. In the series with RAW264.7 [4], the response, % of control at 10 µM is 80.6%. Besides, the Activity result in the series on RAW264.7 [5] is listed as “Non-toxic”; in the series with RAW264.7 [12] it was “Not Active”. Also, the response, % of control at 100 µM in the series with RAW264.7 [6] worked out at 44%. For the same compound, the level, % of control at 100 µM with RAW264.7 [7] worked out at 23.2%. In addition, the response, % of control at 50 µM in the series with RAW264.7 [8] turned out to be 74.2%. In the series on RAW264.7 [11], the level, % of control at 50 µM was determined as 78.1%. Besides, the level, % of control at 10 µM in the series on RAW264.7 [14] stood at 86.1%.

Regarding `CN1c2ccccc2C(=O)N2CCc3c([nH]c4ccccc34)[C@H]21` [EVODIAMINE], the values for the Activity entry with RAW264.7 [5], in the series on RAW264.7 [12] and with RAW264.7 [15] were “Non-toxic”, “Not Active” and “Non-toxic”, respectively.

For the compound `CN1c2ccccc2C(=O)N2CCc3c([nH]c4ccccc34)[C@@H]21` [EVODIAMINE], the response, % of control at 10 µM in the series on RAW264.7 [4] came out at 79.5%. The inhibition at 30 µM in the series on RAW264.7 [16] was found to be 50.6%. The response, % of control at 50 µM in the series on RAW264.7 [8] stood at 68.3%. In addition, the outcome in the series with RAW264.7 [17], in the series with RAW264.7 [18] and in the series on RAW264.7 [19] was inactive.

(Values after ChEMBL document CHEMBL1145681, “Inhibitory effect of dehydroevodiamine and evodiamine on nitric oxide production in cultured murine macrophages” (J Nat Prod, 1997).)
